Results from US20230241211A1, “BISPECIFIC ANTIBODY AGAINST CD3 AND CD20 IN COMBINATION THERAPY FOR TREATING DIFFUSE LARGE B-CELL LYMPHOMA” (GENMAB A/S, priority 2022, published 2023).

What was measured:
[1] = system: CD20-expressing Daudi cells; assay: Epcoritamab-induced T-cell-mediated cytotoxicity assay with lenalidomide-pretreated T cells; assay type: cell-based; conditions: T cells pre-treated with lenalidomide (5 or 50 μM) and anti-CD3 for 3 days, Daudi target cells, E:T ratio 2:1
Description: T cells were incubated with (5 or 50 μM) or without lenalidomide in the absence or presence of immobilized anti-CD3 for 3 days. […] Data shown are average percentages cytotoxicity ±SD of duplicates, normalized to medium control (no antibody, no lenalidomide).
(§1) Briefly, T cells were activated with immobilized anti-CD3 in the presence (5 or 50 μM) or absence of lenalidomide for 3 days. […] T cells that were activated in the presence or absence of lenalidomide were subsequently tested for their cytotoxic capacity in response to epcoritamab.

[2] = system: relapsed or refractory (R/R) B-NHL; highly refractory large B-cell lymphoma; conditions: epcoritamab monotherapy, n=157, cited from earlier work
T cells = assay: T-cell activation with immobilized anti-CD3 in presence or absence of lenalidomide; assay type: cell-based; conditions: CD3 crosslinking with immobilized anti-CD3, lenalidomide 5 or 50 μM, 3 days; compared to no lenalidomide
Description: T cells were pre-incubated with assay medium or lenalidomide in the absence or presence of CD3 crosslinking by immobilized anti-CD3 for 3 days (as indicated on the x-axes), after which upregulation of CD69, CD25, PD-1 and LAMP-1 on CD4^+ and CD8^+ T cells was determined by flow cytometry. Data shown are geomean fluorescence intensities (FI) for four donors (each circle represents one condition for one donor). Pre-incubation conditions are shown on the x-axis.
as §1

[3] = highly refractory large B-cell lymphoma

## epcoritamab: IgG1 bispecific CD3×CD20 antibody; heavy/light chain pairs SEQ ID NOs: 24/25 and 26/27; CAS 2134641-34-0
[1]
  activity at lower epcoritamab concentrations: higher activity at lower epcoritamab concentrations
[1]; versus T cells without lenalidomide
  maximum percent cytotoxicity: Higher maximum percent cytotoxicity
[2]; [3]
  complete response (CR) rate: 39%
  median duration of response (DOR): 12 months
  overall response rate (ORR): 63%
[2]
  safety profile: manageable safety profile

## Nc1cccc2c1CN(C1CCC(=O)NC1=O)C2=O (stereo not shown) [lenalidomide, 3-(4-Amino-1-oxo-1,3-dihydro-2H-isoindol-2-yl) piperidine-2,6-dione]
T cells
  T-cell activation (upregulation of activation markers CD69, CD25 on the T cell surface, release of granzyme B and IFNγ): increased T-cell activation
